In patent publication US8486996B2, “Aroylfuranes and aroylthiophenes” (Basilea Pharmaceutica AG, priority 2006, dated 2013):
Like-named read-outs stand apart in the source and are kept apart here.

What was measured:
[1] = system: tumor cells; experiment: Mitochondrial membrane potential, JC-1 (read-out 48 h); type: cell-based; details: JC-1, 48 h
Procedure, shortened: (§1)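 Tumor cells were treated with test compounds (adherent cells after 24 h of attachment, suspension cells immediately), medium holding up to 5% DMSO. After 48 h, JC-1 (2-5 μg/ml in added medium) was applied for 30 min. Fluorescence microscopy (FITC/TRITC filters) scored the fraction of cells with dissipated mitochondrial membrane potential as categories A-D.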

[2] = as above; type: cell-based; details: PBL, JC-1, 48 h
Procedure, shortened: as §1

[3] = system: tumor cells; experiment: MTS proliferation assay (72 h read-out); type: cell-based
Procedure, shortened: (§2)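 Tumour cells (1.5×10^3–10^4 per well) were seeded 24 h before compound addition, then exposed to 0.001–10 μM final compound for 72 h under culture conditions. MTS reagent was added for a further 3 h, absorbance was read at 492 nm, and results were binned into scores A–D.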

[4] = MTS proliferation assay (72 h read-out); type: cell-based; details: MRC5 cells
Procedure, shortened: as §2

[5] = system: H460; experiment: Colony Forming Units (read-out 6 days), H460; type: cell-based, human; details: colonies containing more than 30 cells, read-out: Colony Forming Units, score based on IC50, H460
Protocol: (§3) Appropriate numbers of cells (100-150 cells, dependent on the cell type) are being seeded out in 1 ml complete medium into 6-well plates and allowed to attach for 48 h. The compounds are added after 48 h in 500 μl solution. The concentrations are in the range of 0.001 μM-3 μM. Control plates receive the same volume of medium containing the appropriate amount of DMSO. The plates are incubated for 5-7 days at cell culture conditions and subsequently scored for growth of colonies (containing more than 30 cells) by using a microscope.

[6] = system: tumor cells; experiment: Hoechst 33342 nuclear staining (48 h read-out); type: cell-based
Procedure, shortened: (§4)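 Adherent cells pre-spread 24 h before dosing, suspension cells dosed at seeding; compounds at 0.001 μM-10 μM final, 48 h at culture conditions. Hoechst 33342 (2-5 μg/ml) added for 30 min, then fluorescence microscopy scoring of apoptotic nuclear fraction and apoptosis-specific morphology, reported as scores A-D.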

[7] = Hoechst 33342 nuclear staining (48 h read-out); type: cell-based
Procedure, shortened: as §4

[8] = system: HeLa; experiment: Colony Forming Units (read-out 6 days), HeLa; type: cell-based, human; details: colonies containing more than 30 cells, read-out: Colony Forming Units, score based on IC50, HeLa
Protocol: as §3

[9] = Homo sapiens, HeLa cells, read-out: Mitochondrial membrane potential (read-out 48 h) HeLa
[10] = Homo sapiens, Jurkat cells, read-out: Mitochondrial membrane potential (read-out 48 h) Jurkat
[11] = Homo sapiens, MCF7 cells, read-out: Mitochondrial membrane potential (read-out 48 h) MCF7
[12] = Jily cells, read-out: Mitochondrial membrane potential (read-out 48 h) Jily
[13] = Homo sapiens, HT-1080, HT1080 cells, read-out: MTS proliferation assay IC50, HT1080
[14] = Homo sapiens, HeLa cells, read-out: MTS proliferation assay IC50, HeLa
[15] = Homo sapiens, Jurkat cells, read-out: MTS proliferation assay IC50, Jurkat
[16] = Jily cells, read-out: MTS proliferation assay IC50, Jily
[17] = Homo sapiens, HeLa cells, read-out: Hoechst 33342 nuclear staining EC50, HeLa
[18] = Homo sapiens, Jurkat cells, read-out: Hoechst 33342 nuclear staining EC50, Jurkat
[19] = Jily cells, read-out: Hoechst 33342 nuclear staining EC50, Jily
[20] = Homo sapiens, MRC5 cells, read-out: Hoechst 33342 nuclear staining EC50, MRC5
[21] = PBL, read-out: Hoechst 33342 nuclear staining EC50, PBL
[22] = HeLa cells, read-out: Mitochondrial membrane potential (read-out 48 h) HeLa
[23] = Jurkat cells, read-out: Mitochondrial membrane potential (read-out 48 h) Jurkat
[24] = MCF7 cells, read-out: Mitochondrial membrane potential (read-out 48 h) MCF7
[25] = HT1080 cells, read-out: MTS proliferation assay IC50, HT1080
[26] = HeLa cells, read-out: MTS proliferation assay IC50, HeLa
[27] = Jurkat cells, read-out: MTS proliferation assay IC50, Jurkat
[28] = HeLa cells, read-out: Hoechst 33342 nuclear staining EC50, HeLa
[29] = Jurkat cells, read-out: Hoechst 33342 nuclear staining EC50, Jurkat
[30] = MRC5 cells, read-out: Hoechst 33342 nuclear staining EC50, MRC5

Row | SMILES | EC50 [1, 9] | EC50 [1, 10] | EC50 [1, 11] | EC50 [1, 12] | EC50 [2] | IC50 [3, 13] | IC50 [3, 14] | IC50 [3, 15] | IC50 [3, 16] | EC50 [6, 17] | EC50 [6, 18] | EC50 [6, 19] | EC50 [7, 20] | EC50 [7, 21] | EC50 [1, 22] | EC50 [1, 23] | EC50 [1, 24] | IC50 [3, 25] | IC50 [3, 26] | IC50 [3, 27] | further results
1 | CCOc1ccccc1C(=O)c1oc2ccc(Cl)cc2c1N [Example 2, 3-Amino-5-chloro-2-(2-ethoxybenzoyl)-benzofuran] | 10 to 100 nM | < 10 nM | 100 to 1000 nM | 10 to 100 nM | > 1000 nM | 10 to 100 nM | 10 to 100 nM | < 10 nM | 10 to 100 nM | 10 to 100 nM | < 10 nM | 10 to 100 nM | 10 to 100 nM | > 1000 nM |  |  |  |  |  |  | IC50 ([4]; Homo sapiens): 10 to 100 nM; IC50 ([5]; Homo sapiens, NCI-H460, 144 h): 10 to 100 nM; IC50 ([8]; Homo sapiens, 144 h): 10 to 100 nM
2 | CCOc1ccc(F)cc1C(=O)c1oc2ccc(OC)cc2c1NC(=O)COC [Example 58] |  |  |  | 10 to 100 nM | > 1000 nM |  |  |  | 10 to 100 nM |  |  | 10 to 100 nM |  | > 1000 nM | 100 to 1000 nM | 10 to 100 nM | 100 to 1000 nM | 10 to 100 nM | 10 to 100 nM | < 10 nM | IC50 [4]: 10 to 100 nM; IC50 [5]: 10 to 100 nM; EC50 [6, 28]: 100 to 1000 nM; EC50 [6, 29]: 10 to 100 nM; EC50 [7, 30]: > 1000 nM; IC50 [8]: 10 to 100 nM
3 | COCCOc1ccccc1C(=O)c1oc2ccc(Cl)cc2c1N [Example 6] |  |  |  | 100 to 1000 nM | > 1000 nM |  |  |  | 100 to 1000 nM |  |  | 100 to 1000 nM |  | > 1000 nM | 100 to 1000 nM | 100 to 1000 nM | 100 to 1000 nM | > 1000 nM | 100 to 1000 nM | 100 to 1000 nM | IC50 [4]: > 1000 nM; IC50 [5]: 100 to 1000 nM; EC50 [6, 28]: 100 to 1000 nM; EC50 [6, 29]: 100 to 1000 nM; EC50 [7, 30]: > 1000 nM; IC50 [8]: 100 to 1000 nM
4 | CCOc1ccc([N+](=O)[O-])cc1C(=O)c1oc2ccc(Cl)cc2c1N [Example 3, 3-Amino-5-chloro-2-(2-ethoxy-5-nitrobezoyl)-benzofuran] | < 10 nM | < 10 nM | 10 to 100 nM | < 10 nM | > 1000 nM | < 10 nM | < 10 nM | < 10 nM | < 10 nM | < 10 nM | < 10 nM | < 10 nM | < 10 nM | > 1000 nM |  |  |  |  |  |  | IC50 ([4]; Homo sapiens): < 10 nM; IC50 ([5]; Homo sapiens, NCI-H460, 144 h): < 10 nM; IC50 ([8]; Homo sapiens, 144 h): < 10 nM
5 | C#CCOc1ccc(OC)cc1C(=O)c1oc2ccc(Cl)cc2c1N [Example 13] |  |  |  | 100 to 1000 nM | > 1000 nM |  |  |  | 10 to 100 nM |  |  | 100 to 1000 nM |  |  | 100 to 1000 nM | 100 to 1000 nM | 100 to 1000 nM | 100 to 1000 nM | 100 to 1000 nM | 10 to 100 nM | IC50 [4]: 100 to 1000 nM; IC50 [5]: 100 to 1000 nM; EC50 [6, 28]: 100 to 1000 nM; EC50 [6, 29]: 100 to 1000 nM; EC50 [7, 30]: 100 to 1000 nM; IC50 [8]: 100 to 1000 nM
6 | COc1ccc2oc(C(=O)c3cc(F)ccc3N3CCOCC3)cc2c1 [Example 38, 2-(5-Fluoro-2-morpholinobenzoyl)-5-methoxybenzofuran] | 10 to 100 nM | 10 to 100 nM | 10 to 100 nM | 10 to 100 nM | > 1000 nM | 10 to 100 nM | 10 to 100 nM | 10 to 100 nM | 10 to 100 nM | 10 to 100 nM | < 10 nM | < 10 nM | 10 to 100 nM | > 1000 nM |  |  |  |  |  |  | IC50 ([4]; Homo sapiens): 10 to 100 nM; IC50 ([5]; Homo sapiens, NCI-H460, 144 h): < 10 nM; IC50 ([8]; Homo sapiens, 144 h): < 10 nM
7 | Nc1c(C(=O)c2cccnc2N2CCCCC2)oc2ccc(Cl)cc12 [Example 82] |  |  |  | < 10 nM | > 1000 nM |  |  |  | < 10 nM |  |  | 10 to 100 nM |  | > 1000 nM | 10 to 100 nM | < 10 nM | 10 to 100 nM | < 10 nM | < 10 nM | < 10 nM | IC50 [4]: < 10 nM; IC50 [5]: 10 to 100 nM; EC50 [6, 28]: 10 to 100 nM; EC50 [6, 29]: < 10 nM; EC50 [7, 30]: 10 to 100 nM; IC50 [8]: 10 to 100 nM
8 | CCOc1ccc(C(=O)OC)cc1C(=O)c1oc2ccc(Cl)cc2c1N [Example 20] | 100 to 1000 nM | 10 to 100 nM | 100 to 1000 nM | 10 to 100 nM | > 1000 nM | 10 to 100 nM | 100 to 1000 nM | 10 to 100 nM | 10 to 100 nM | 100 to 1000 nM | 10 to 100 nM | 10 to 100 nM | > 1000 nM | > 1000 nM |  |  |  |  |  |  | melting point: 136 to 138 °C
